Measurements as given in ChEMBL document CHEMBL3244027, “Syntheses, analgetic activity, and physical dependence capacity of 5-phenyl-6,7-benzomorphan derivatives” (J Med Chem, 1979).
Calls of active or inactive are those of the source. The rule behind the calls is not given here.

Experiments:
[1] = test system: Mus musculus; experiment: Analgetic activity against CF-1 mouse assessed as increase in reaction time at 20 mg/kg, sc by heat stimulus induced tail flick response assay; format: functional, organism-based; design: dose 20 mg/kg
[2] = test system: Mus musculus; experiment: Analgetic activity against CF-1 mouse assessed as increase in reaction time at 320 mg/kg, sc by heat stimulus induced tail flick response assay; format: functional, organism-based; design: dose 320 mg/kg
[3] = test system: Mus musculus; experiment: Analgetic activity against CF-1 mouse assessed as increase in reaction time at 160 mg/kg, po by heat stimulus induced tail flick response assay; format: functional, organism-based; design: dose 160 mg/kg
[4] = species on record: Mus musculus; experiment: Analgetic activity in naloxone challenged mouse assessed as frequency pretreated for 2 day by mouse jumping test; format: functional, organism-based
[5] = test system: Mus musculus; experiment: Analgetic activity in sc dosed CF1S mouse assessed as writhing by phenylquinone writhing test; format: functional; settings: Mus musculus, CF1S, sc; read-out: ED50
[6] = test system: Mus musculus; experiment: Analgetic activity in po dosed CF1S mouse assessed as writhing by phenylquinone writhing test; format: functional; settings: Mus musculus, CF1S, po; read-out: ED50
[7] = test system: Mus musculus; experiment: Analgetic activity against CF-1 mouse assessed as increase in reaction time at 320 mg/kg, po by heat stimulus induced tail flick response assay; format: functional, organism-based; design: dose 320 mg/kg
[8] = test system: Mus musculus; experiment: Analgetic activity against CF-1 mouse assessed as increase in reaction time at 40 mg/kg, sc by heat stimulus induced tail flick response assay; format: functional, organism-based; design: dose 40 mg/kg
[9] = test system: Mus musculus; experiment: Analgetic activity against CF-1 mouse assessed as increase in reaction time at 80 mg/kg, po by heat stimulus induced tail flick response assay; format: functional, organism-based; design: dose 80 mg/kg
[10] = species on record: Mus musculus; experiment: Analgetic activity in nalorphine challenged mouse assessed as frequency pretreated for 2 day by mouse jumping test; format: functional, organism-based
[11] = test system: Mus musculus; experiment: Analgetic activity against CF-1 mouse assessed as increase in reaction time at 80 mg/kg, sc by heat stimulus induced tail flick response assay; format: functional, organism-based; design: dose 80 mg/kg
[12] = test system: Mus musculus; experiment: Analgetic activity against CF-1 mouse assessed as increase in reaction time at 160 mg/kg, sc by heat stimulus induced tail flick response assay; format: functional, organism-based; design: dose 160 mg/kg
[13] = test system: Mus musculus; experiment: Analgetic activity against CF-1 mouse assessed as increase in reaction time at 40 mg/kg, po by heat stimulus induced tail flick response assay; format: functional, organism-based; design: dose 40 mg/kg
[14] = test system: Mus musculus; experiment: Analgetic activity against CF-1 mouse assessed as increase in reaction time at 5 mg/kg, sc by heat stimulus induced tail flick response assay; format: functional, organism-based; design: dose 5 mg/kg
[15] = test system: Mus musculus; experiment: Analgetic activity against CF-1 mouse assessed as increase in reaction time at 10 mg/kg, po by heat stimulus induced tail flick response assay; format: functional, organism-based; design: dose 10 mg/kg

CCC1C2Cc3ccc(O)cc3C1(c1ccccc1)CCN2C (racemic)
Activity [1]: Active

Oc1ccc2c(c1)C1(c3ccccc3)CCNC(C2)C1 (racemic)
Activity [2]: inactive | Activity [3]: inactive

CN1CCC(c2ccccc2)=CC1Cc1ccc(O)cc1 (configuration not stated)
Activity [1]: Active | Activity [4]: inactive | ED50 [5]: 1.5 mg/kg | ED50 [6]: 27 mg/kg

CN(C)C(=S)Oc1ccc2c(c1)C1(c3ccccc3)CCN(C)C(C2)C1 (racemic)
Activity [7]: inactive | Activity [8]: inactive

CC1C2Cc3ccc(O)cc3C1(c1ccccc1)CCN2CCC(=O)c1ccccc1 (configuration not stated)
Activity [3]: Active

COc1cc(CC2C=C(c3ccccc3)CCN2C)cc(OC)c1OC (configuration not stated)
Activity [9]: Active

CC1C2Cc3ccc(O)cc3C1(c1ccccc1)CCN2 (stereo in doubt; 110)
Activity [2]: inactive | Activity [7]: inactive

Oc1ccc2c(c1)C1(c3ccccc3)CCN(C/C=C/Cl)C(C2)C1 (racemic)
Activity [4]: inactive | ED50 [5]: > 100 mg/kg

Oc1ccc2c(c1)C1(c3ccccc3)CCN(CCc3ccccc3)C(C2)C1 (configuration not stated)
Activity [4]: Active | Activity [9]: Active

CC1C2Cc3ccc(OC(=O)c4ccccc4F)cc3C1(c1ccccc1)CCN2C (configuration not stated)
ED50 [5]: 0.5 mg/kg | Activity [10]: Active

OCCN1CCC2(c3ccccc3)CC1Cc1ccc(O)cc12 (racemic)
Activity [2]: inactive | ED50 [5]: > 100 mg/kg

CCCN1CCC2(c3ccccc3)c3cc(O)ccc3CC1C2C (stereo in doubt; 173)
Activity [2]: inactive

C/C(Cl)=C\CN1CCC2(c3ccccc3)c3cc(O)ccc3CC1C2C (configuration not stated)
Activity [11]: inactive | ED50 [5]: > 100 mg/kg

CN1CCC2(c3ccc(Cl)cc3)CC1Cc1ccc(O)cc12 (racemic)
Activity [8]: Active

Br.CC1=C(c2ccccc2)CCN(C)C1Cc1ccccc1 (configuration not stated)
Activity [12]: Active | ED50 [5]: 45 mg/kg

c1ccc(CCN2CCC3(c4ccccc4)CC2Cc2ccccc23)cc1 (racemic)
Activity [3]: Active

CC1C2Cc3ccc(O)cc3C1(c1ccccc1)CCN2CC(c1ccccc1)c1ccccc1 (configuration not stated)
Activity [3]: inactive

CN(C)CCCN1CCC2(c3ccccc3)CC1Cc1ccc(O)cc12 (racemic)
Activity [2]: inactive

COc1ccc(CC2C=C(c3ccccc3)CCN2C)cc1OC (configuration not stated)
Activity [8]: Active

CC1C2Cc3ccc(O)cc3C1(c1ccccc1)CCN2CC1CCC1 (stereo in doubt; 219)
Activity [4]: inactive

CC(C)=CCN1CCC2(c3ccccc3)c3cc(O)ccc3CC1C2C (stereo in doubt; 207)
Activity [4]: inactive

CCOC(=O)C(C)N1CCC2(c3ccccc3)c3cc(O)ccc3CC1C2C (configuration not stated)
Activity [2]: inactive | ED50 [5]: > 100 mg/kg

c1ccc(CCN2CCC3(c4ccccc4)CC2Cc2ccccc23)cc1 (configuration not stated)
Activity [12]: inactive

C[C@@H]1C2Cc3ccc(O)cc3C1(c1ccccc1)CCN2CCC(C)(C)O (some centres not stated)
Activity [2]: inactive | ED50 [5]: 78 mg/kg

CN1CCC2(c3ccccc3)CC1Cc1ccccc12 (stereo in doubt; 36)
Activity [1]: Active | Activity [10]: inactive

CCOC(=O)CN1CCC2(c3ccccc3)c3cc(O)ccc3CC1C2C (configuration not stated)
Activity [2]: inactive

C=C(Br)CN1CCC2(c3ccccc3)c3cc(O)ccc3CC1C2C.Cl (configuration not stated)
Activity [4]: inactive | ED50 [5]: > 100 mg/kg | Activity [8]: inactive

CN1CCC(c2ccccc2)=CC1Cc1ccc(F)cc1 (configuration not stated)
Activity [11]: Active

COc1ccc2c(c1)C1(c3ccccc3)CCNC(C2)C1.Cl (configuration not stated)
Activity [2]: inactive | ED50 [5]: 100 mg/kg

Br.CN1CCC(c2ccccc2)=CC1Cc1ccccc1 (configuration not stated)
Activity [4]: inactive | ED50 [5]: 6.6 mg/kg | ED50 [6]: 37 mg/kg | Activity [8]: Active

CN1CCC2(c3ccccc3)CC1Cc1ccccc12 (racemic)
Activity [1]: Active | Activity [13]: Active

Oc1ccc2c(c1)C1(c3ccccc3)CCN(CCc3ccccc3)C(C2)C1 (racemic)
Activity [8]: Active

CCOC(=O)CNC(=O)Oc1ccc2c(c1)C1(c3ccccc3)CCN(C)C(C2)[C@H]1C (some centres not stated)
Activity [8]: Active | Activity [9]: Active

CC1C2Cc3ccc(O)cc3C1(c1ccccc1)CCN2CCC(C#N)(c1ccccc1)c1ccccc1 (stereo in doubt; 189)
Activity [7]: inactive | Activity [10]: inactive

CN1CCC2(c3ccccc3)CC1Cc1ccc(O)cc12 (racemic)
Activity [1]: Active

CC1=C(c2ccccc2)CCN(C)C1Cc1ccc(O)cc1 (configuration not stated)
Activity [12]: Active | Activity [4]: inactive | ED50 [5]: 5 mg/kg

CC1C2Cc3ccc(O)cc3C1(c1ccccc1)CCN2Cc1ccco1 (configuration not stated)
Activity [2]: inactive

CN1CCC2(c3ccccc3)CC1Cc1ccccc12 (stereo in doubt; 37)
Activity [2]: inactive

CC1C2Cc3ccc(O)cc3C1(c1ccccc1)CCN2CCc1ccc([N+](=O)[O-])cc1.Cl (configuration not stated)
Activity [2]: inactive | Activity [7]: inactive | ED50 [6]: > 100 mg/kg

c1ccc(C23CCNC(Cc4ccccc42)C3)cc1 (configuration not stated)
Activity [12]: Active

CC(=O)Oc1ccc2c(c1)C1(c3ccccc3)CCN(CC=C(C)C)C(C2)C1C (configuration not stated)
Activity [2]: inactive

COc1ccc(CC2C=C(c3ccccc3)CCN2C)cc1 (configuration not stated)
Activity [11]: Active | Activity [4]: inactive

CC1C2Cc3ccccc3C1(c1ccccc1)CCN2C (racemic)
Activity [8]: Active | Activity [9]: Active

Oc1ccc2c(c1)C1(c3ccc(Cl)cc3)CCNC(C2)C1 (racemic)
Activity [2]: inactive

CN1CCC2(c3ccccc3)CC1Cc1cc(O)c(O)c(O)c12 (racemic)
Activity [3]: inactive

Oc1ccc2c(c1)C1(c3ccccc3)CCN(CCCc3ccccc3)C(C2)C1 (racemic)
ED50 [6]: > 100 mg/kg | Activity [3]: Active

CC1C2Cc3ccc(O)cc3C1(c1ccccc1)CCN2CCc1ccccc1 (racemic)
Activity [1]: Active | Activity [13]: Active

CCCCCN1CCC2(c3ccccc3)c3cc(O)ccc3CC1C2C (racemic)
Activity [14]: Active

Br.CN1CCC2(c3ccccc3)CC1Cc1ccc(F)cc12 (racemic)
Activity [11]: inactive | ED50 [6]: 33 mg/kg

Oc1ccc2c(c1)C1(c3ccccc3)CCN(CC3CCC3)C(C2)C1 (stereo in doubt; 145)
Activity [4]: inactive

CCOC(=O)CCN1CCC2(c3ccccc3)CC1Cc1ccc(O)cc12 (racemic)
Activity [2]: inactive | ED50 [5]: 78 mg/kg | ED50 [6]: > 100 mg/kg

CC1C2Cc3ccc(OC(=O)c4ccccc4Cl)cc3C1(c1ccccc1)CCN2C (configuration not stated)
ED50 [6]: 49 mg/kg | Activity [10]: Active

O=[N+]([O-])c1ccc(CCN2CCC3(c4ccccc4)CC2Cc2ccc(O)cc23)cc1 (racemic)
Activity [2]: inactive

Cc1ccc(S(=O)(=O)Oc2ccc3c(c2)C2(c4ccccc4)CCN(C)C(C3)C2)cc1 (racemic)
Activity [11]: inactive

CN1CCC2(c3ccccc3)CC1Cc1cc(O)c(O)cc12 (racemic)
Activity [2]: inactive

CC1C2Cc3ccc(O)cc3C1(c1ccccc1)CCN2CCO (configuration not stated)
Activity [11]: inactive

CCC1=C(c2ccccc2)CCN(C)C1Cc1ccc(O)cc1 (configuration not stated)
Activity [11]: Active | Activity [4]: inactive

CC(C)CCN1CCC2(c3ccccc3)c3cc(O)ccc3CC1[C@H]2C (some centres not stated)
Activity [3]: Active

CN1CCC2(c3ccccc3)CC1Cc1ccc(O)cc12 (stereo in doubt; 42)
Activity [11]: inactive

Br.CCN1CCC2(c3ccccc3)CC1Cc1ccccc12 (racemic)
Activity [2]: inactive | ED50 [5]: 16 mg/kg

Cl.Oc1ccc2c(c1)C1(c3ccc(Cl)cc3)CCN(CCc3ccccc3)C(C2)C1 (racemic)
ED50 [5]: > 100 mg/kg | Activity [9]: inactive

COc1ccc(CC2C=C(c3ccc(Cl)cc3)CCN2C)cc1 (configuration not stated)
Activity [4]: inactive | Activity [13]: Active

COc1ccc2c(c1)C1(c3ccccc3)CCN(CC=C(C)C)C(C2)C1C (configuration not stated)
Activity [2]: inactive | ED50 [5]: > 100 mg/kg

CN1CCC2(c3ccc(Cl)cc3)CC1Cc1ccccc12 (racemic)
Activity [11]: Active | Activity [3]: Active

CC1C2Cc3ccc(O)cc3C1(c1ccccc1)CCN2CCO (racemic)
Activity [7]: inactive | Activity [12]: inactive

C[C@@H]1C2Cc3ccc(O)cc3C1(c1ccccc1)CCN2C (mixture of isomers)
Activity [12]: Active

CCCCCN1CCC2(c3ccccc3)c3cc(OC(C)=O)ccc3CC1C2C (configuration not stated)
Activity [13]: Active | Activity [14]: Active

c1ccc(C23CCNC(Cc4ccccc42)C3)cc1 (racemic)
Activity [11]: Active

CC1C2Cc3ccc(O)cc3C1(c1ccccc1)CCN2C (configuration not stated)
Activity [1]: Active | Activity [13]: Active

C/C(Cl)=C/CN1CCC2(c3ccccc3)c3cc(O)ccc3CC1C2C (racemic)
Activity [12]: inactive | ED50 [5]: > 100 mg/kg

CC1C2Cc3ccc(O)cc3C1(c1ccccc1)CCN2C (racemic)
Activity [15]: Active | Activity [14]: Active

CC(=O)Oc1ccc2c(c1)C1(c3ccccc3)CCN(C)C(C2)C1 (racemic)
Activity [11]: inactive | Activity [4]: inactive | ED50 [5]: 9.4 mg/kg

C#CCN1CCC2(c3ccccc3)c3cc(O)ccc3CC1C2C (configuration not stated)
Activity [4]: inactive
